Measurements reported in the NIST ThermoML archive (doi:10.1021/je049671t).
± gives the expanded uncertainty stated by the source.

Experiment: xn = mol fraction of the nth substance listed
Details: Liquid, Vibrating tube method

CC(C)C [2-methylpropane] + CCCC
Details | mass density [kg/m3]
260 K, 6987.3 kPa, x2 = 0.5 | 613.2 ± 0.33
260 K, 7000.3 kPa, x2 = 0.25 | 608.81 ± 0.33
260 K, 7024.3 kPa, x2 = 0.75 | 617.88 ± 0.33
280 K, 491.4 kPa, x2 = 0.25 | 578.14 ± 0.27
280 K, 494.5 kPa, x2 = 0.75 | 588.49 ± 0.27
280 K, 514.1 kPa, x2 = 0.5 | 583.32 ± 0.27
280 K, 997.4 kPa, x2 = 0.5 | 584.09 ± 0.28
280 K, 997.5 kPa, x2 = 0.25 | 578.99 ± 0.28
280 K, 997.9 kPa, x2 = 0.75 | 589.24 ± 0.27
280 K, 1496 kPa, x2 = 0.25 | 579.79 ± 0.28
280 K, 1499.8 kPa, x2 = 0.75 | 590.03 ± 0.28
280 K, 1515.6 kPa, x2 = 0.5 | 584.89 ± 0.28
280 K, 1990.8 kPa, x2 = 0.5 | 585.62 ± 0.29
280 K, 1991.8 kPa, x2 = 0.75 | 590.76 ± 0.28
280 K, 2009.2 kPa, x2 = 0.25 | 580.63 ± 0.29
280 K, 2501 kPa, x2 = 0.75 | 591.51 ± 0.29
280 K, 2510.6 kPa, x2 = 0.5 | 586.43 ± 0.29
280 K, 2512.7 kPa, x2 = 0.25 | 581.42 ± 0.29
280 K, 3001.9 kPa, x2 = 0.75 | 592.24 ± 0.29
280 K, 3016.2 kPa, x2 = 0.5 | 587.2 ± 0.3
280 K, 3023 kPa, x2 = 0.25 | 582.23 ± 0.3
280 K, 3506.9 kPa, x2 = 0.25 | 582.98 ± 0.3
280 K, 3511.3 kPa, x2 = 0.75 | 592.97 ± 0.3
280 K, 3532.6 kPa, x2 = 0.5 | 587.97 ± 0.3
280 K, 4008 kPa, x2 = 0.25 | 583.74 ± 0.31
280 K, 4010.5 kPa, x2 = 0.75 | 593.64 ± 0.3
280 K, 4012.8 kPa, x2 = 0.5 | 588.67 ± 0.31
280 K, 4502.1 kPa, x2 = 0.75 | 594.34 ± 0.31
280 K, 4504.4 kPa, x2 = 0.25 | 584.53 ± 0.31
280 K, 4508.3 kPa, x2 = 0.5 | 589.4 ± 0.31
280 K, 4994.2 kPa, x2 = 0.75 | 595.02 ± 0.31
280 K, 5006.3 kPa, x2 = 0.25 | 585.27 ± 0.32
280 K, 5025.7 kPa, x2 = 0.5 | 590.15 ± 0.32
280 K, 5479.3 kPa, x2 = 0.5 | 590.82 ± 0.32
280 K, 5523.8 kPa, x2 = 0.25 | 586.04 ± 0.32
280 K, 5525.5 kPa, x2 = 0.75 | 595.77 ± 0.32
280 K, 5942.8 kPa, x2 = 0.75 | 596.37 ± 0.32
280 K, 5993.3 kPa, x2 = 0.5 | 591.55 ± 0.33
280 K, 6024.7 kPa, x2 = 0.25 | 586.78 ± 0.33
280 K, 6475.5 kPa, x2 = 0.75 | 597.09 ± 0.33
280 K, 6510.8 kPa, x2 = 0.25 | 587.5 ± 0.34
280 K, 6528.5 kPa, x2 = 0.5 | 592.3 ± 0.33
280 K, 6953.9 kPa, x2 = 0.5 | 592.89 ± 0.34
280 K, 6984.1 kPa, x2 = 0.25 | 588.18 ± 0.34
280 K, 7039.4 kPa, x2 = 0.75 | 597.8 ± 0.34
300 K, 312 kPa, x2 = 0.5 | 559.4 ± 0.28
300 K, 502.9 kPa, x2 = 0.25 | 554.17 ± 0.28
300 K, 505.7 kPa, x2 = 0.75 | 565.16 ± 0.28
300 K, 510.2 kPa, x2 = 0.5 | 559.82 ± 0.28
300 K, 983.9 kPa, x2 = 0.5 | 560.78 ± 0.28
300 K, 999.4 kPa, x2 = 0.25 | 555.23 ± 0.28
300 K, 1002.4 kPa, x2 = 0.75 | 566.11 ± 0.28
300 K, 1493 kPa, x2 = 0.75 | 567.04 ± 0.29
300 K, 1497.1 kPa, x2 = 0.25 | 556.26 ± 0.29
300 K, 1509.8 kPa, x2 = 0.5 | 561.83 ± 0.29
300 K, 1992.8 kPa, x2 = 0.5 | 562.77 ± 0.29
300 K, 1997.4 kPa, x2 = 0.25 | 557.29 ± 0.29
300 K, 2007.5 kPa, x2 = 0.75 | 568 ± 0.29
300 K, 2498.6 kPa, x2 = 0.25 | 558.33 ± 0.3
300 K, 2510.2 kPa, x2 = 0.75 | 568.9 ± 0.3
300 K, 2513.9 kPa, x2 = 0.5 | 563.78 ± 0.3
300 K, 2995.9 kPa, x2 = 0.75 | 569.79 ± 0.3
300 K, 3011.4 kPa, x2 = 0.5 | 564.72 ± 0.3
300 K, 3014 kPa, x2 = 0.25 | 559.36 ± 0.31
300 K, 3476.1 kPa, x2 = 0.5 | 565.59 ± 0.31
300 K, 3483.6 kPa, x2 = 0.75 | 570.68 ± 0.31
300 K, 3510.6 kPa, x2 = 0.25 | 560.33 ± 0.31
300 K, 3988.4 kPa, x2 = 0.5 | 566.54 ± 0.31
300 K, 4007.7 kPa, x2 = 0.25 | 561.28 ± 0.32
300 K, 4013.5 kPa, x2 = 0.75 | 571.62 ± 0.31
300 K, 4453.4 kPa, x2 = 0.5 | 567.4 ± 0.32
300 K, 4467 kPa, x2 = 0.75 | 572.38 ± 0.32
300 K, 4513.9 kPa, x2 = 0.25 | 562.25 ± 0.32
300 K, 4997.8 kPa, x2 = 0.75 | 573.31 ± 0.32
300 K, 5016.3 kPa, x2 = 0.25 | 563.17 ± 0.33
300 K, 5026.1 kPa, x2 = 0.5 | 568.4 ± 0.33
300 K, 5472.7 kPa, x2 = 0.5 | 569.19 ± 0.33
300 K, 5473.2 kPa, x2 = 0.75 | 574.11 ± 0.33

mass density [kg/m3]
Details | x2 = 0.25 | x2 = 0.5 | x2 = 0.75
260 K | 600.04 ± 0.26 | 604.76 ± 0.26 | 609.84 ± 0.26
280 K | 577.61 ± 0.27 | 582.79 ± 0.27 | 588.07 ± 0.27
